Each compound was assayed on female C57BL6 mice (assay: Lymphopenia assay in mice (in vivo blood lymphocyte depletion)). Details: after 24 hours; after dosing; FIG. 1 legend.
Description: Test drugs are prepared in a solution containing 3% (w/v) 2-hydroxy propyl β-cyclodextrin (HPBCD) and 1% DMSO to a final concentration of 1 mg/ml, and subcutaneously injected to female C57BL6 mice (CHARLES RIVERS) weighing 20-25 g at the dose of 10 mg/Kg. Blood samples are obtained by puncturing the submandibular skin with a Goldenrod animal lancet at 5, 24, 48, 72, and 96 hrs post drug application. Blood is collected into microvettes (SARSTEDT) containing EDTA tripotassium salt. Lymphocytes in blood samples are counted using a HEMAVET Multispecies Hematology System, HEMAVET HV950FS (Drew Scientific Inc.). (Hale, J. et al Bioorg. & Med. Chem. Lett. 14 (2004) 3351).
A lymphopenia assay in mice, as previously described, was employed to measure the in vivo blood lymphocyte depletion after dosing Compound 5 (FIG. 1). These S1P agonists (or modulators) are useful for S1P-related diseases, and exemplified by the lymphopenia in vivo response. In general, test compounds were prepared in a solution containing 3% (w/v) 2-hydroxy propyl β-cyclodextrin (HPBCD) and 1% DMSO to a final concentration of 1 mg/ml, and subcutaneously injected to female C57BL6 mice (CHARLES RIVERS) weighing 20-25 g at the dose of 10 mg/Kg or 2 mg/Kg. […] Lymphocytes in blood samples were counted using a HEMAVET Multispecies Hematology System, HEMAVET HV950FS (Drew Scientific Inc.).

SMILES	lymphocyte count
O=P(O)(O)CCCNCc1ccc(CCCCCCCc2ccccc2)c2cccnc12 [Compound 5, [3-({[5-(7-phenylheptyl)quinolin-8-yl]methyl}amino)propyl]phosphonic acid]	lowered lymphocyte count

Same assay, conditions: after 24 hours; subcutaneously injected, 10 mg/Kg or 2 mg/Kg; FIG. 1

SMILES	number of lymphocytes
O=P(O)(O)CCCNCc1ccc(CCCCCCCc2ccccc2)c2cccnc12 [Compound 5, [3-({[5-(7-phenylheptyl)quinolin-8-yl]methyl}amino)propyl]phosphonic acid]	< 1 10^3/μL blood

What follows are compounds tested against T1, human S1P1 receptor (Homo sapiens, UniProt P21453) (assay: GTP γ35S binding assay for S1P1 activity). Details: membranes of cells stably expressing the S1P1 receptor.
T1 construct: expressed in transfected cells; membranes of cells stably expressing the receptor
Format: biochemical
Description: Novel compounds were synthesized and tested for S1P1 activity using the GTP γ^35S binding assay. These compounds may be assessed for their ability to activate or block activation of the human S1P1 receptor in cells stably expressing the S1P1 receptor. GTP γ^35S binding was measured in the medium containing (mM) HEPES 25, pH 7.4, MgCl2 10, NaCl 100, dithitothreitol 0.5, digitonin 0.003%, 0.2 nM GTP γ^35S, and 5 μg membrane protein in a volume of 150 μl. Test compounds were included in the concentration range from 0.08 to 5,000 nM unless indicated otherwise. Membranes were incubated with 100 μM 5′-adenylylimmidodiphosphate for 30 min, and subsequently with 10 μM GDP for 10 min on ice. Drug solutions and membrane were mixed, and then reactions were initiated by adding GTP γ^35S and continued for 30 min at 25° C. Reaction mixtures were filtered over Whatman GF/B filters under vacuum, and washed three times with 3 mL of ice-cold buffer (HEPES 25, pH7.4, MgCl2 10 and NaCl 100). Filters were dried and mixed with scintillant, and counted for ^35S activity using a 8-counter. Agonist-induced GTP γ^35S binding was obtained by subtracting that in the absence of agonist. Binding data were analyzed using a non-linear regression method. In case of antagonist assay, the reaction mixture contained 10 nM […] in the presence of test antagonist at concentrations ranging from 0.08 to 5000 nM.
Activity potency: S1P1 receptor from GTP γ^35S: nM, (EC50).

T1 sequence (P21453 whole entry): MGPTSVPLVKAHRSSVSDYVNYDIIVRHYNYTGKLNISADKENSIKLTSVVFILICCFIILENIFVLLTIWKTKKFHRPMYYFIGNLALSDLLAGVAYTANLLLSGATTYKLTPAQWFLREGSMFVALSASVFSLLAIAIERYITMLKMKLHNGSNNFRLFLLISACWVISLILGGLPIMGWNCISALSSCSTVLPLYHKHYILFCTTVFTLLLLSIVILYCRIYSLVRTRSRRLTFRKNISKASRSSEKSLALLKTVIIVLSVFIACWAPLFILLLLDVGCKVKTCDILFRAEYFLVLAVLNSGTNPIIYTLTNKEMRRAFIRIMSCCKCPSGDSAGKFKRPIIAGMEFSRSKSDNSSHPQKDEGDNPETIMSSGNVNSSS

SMILES	EC50 [nM]
O=P(O)(O)CCCNCc1ccc(C#CCCCc2ccccc2)c2cccnc12 [Compound 8, [3-({[5-(5-phenylpent-1-yn-1-yl)quinolin-8-yl]methyl}amino)propyl]phosphonic acid]	543
O=P(O)(O)CCCNCc1ccc(C#CCCCCCc2ccccc2)c2cccnc12 [Compound 3, [3-({[5-(7-phenylhept-1-yn-1-yl)quinolin-8-yl]methyl}amino)propyl]phosphonic acid]	94
O=P(O)(O)CCCNCc1ccc(CCCCCCc2ccccc2)c2cccnc12 [Compound 7, [3-({[5-(6-phenylhexyl)quinolin-8-yl]methyl}amino)propyl]phosphonic acid]	5.45
COc1cccc(CCCCCCc2ccc(CNCCCP(=O)(O)O)c3ncccc23)c1 [Compound 13, {3-[({5-[6-(3-methoxyphenyl)hexyl]quinolin-8-yl}methyl)amino]propyl}phosphonic acid]	7.68
O=P(O)(O)OCCNCc1ccc(CCCCCCc2ccccc2)c2cccnc12 [Compound 11, 2-({[5-(6-phenylhexyl)quinolin-8-yl]methyl}amino)ethyl dihydrogen phosphate]	2.19
CCCCCCCCCCc1ccc(CNCCCP(=O)(O)O)c2ncccc12 [Compound 1, (3-{[(5-decylquinolin-8-yl)methyl]amino}propyl)phosphonic acid]	1.53
O=P(O)(O)CCCNCc1ccc(C#CCCCCc2ccccc2)c2cccnc12 [Compound 4, [3-({[5-(6-phenylhex-1-yn-1-yl)quinolin-8-yl]methyl}amino)propyl]phosphonic acid]	204
O=P(O)(O)CCCNCc1ccc(CCCCCCc2ccccc2)c2ccccc12 [Compound 19, [3-({[4-(6-phenylhexyl)-1-naphthyl]methyl}amino)propyl]phosphonic acid]	5.59
O=P(O)(O)CCCNCc1ccc(CCCCCCCc2ccccc2)c2cccnc12 [Compound 5, [3-({[5-(7-phenylheptyl)quinolin-8-yl]methyl}amino)propyl]phosphonic acid]	173

Results, then the compound that gave them:

EC50 [nM]	SMILES
18.3	COc1cccc(CCCCC#Cc2ccc(CNCCCP(=O)(O)O)c3ncccc23)c1 [Compound 12, {3-[({5-[6-(3-methoxyphenyl)hex-1-yn-1-yl]quinolin-8-yl}methyl)amino]propyl}phosphonic acid]
55.5	O=P(O)(O)OCCNCc1ccc(CCCCCCc2ccccc2)c2ccccc12 [Compound 18, 2-({[4-(6-phenylhexyl)-1-naphthyl]methyl}amino)ethyl dihydrogen phosphate]
3.39	CCCCCCCCC#Cc1ccc(CNCCCP(=O)(O)O)c2ncccc12 [Compound 2, (3-{[(5-dec-1-yn-1-ylquinolin-8-yl)methyl]amino}propyl)phosphonic acid]
4.88	O=P(O)(O)CCCNCc1ccc(C#CCCCCc2ccccc2)c2ccccc12 [Compound 16, [3-({[4-(6-phenylhex-1-yn-1-yl)-1-naphthyl]methyl}amino)propyl]phosphonic acid]
138	CCCCCCCC/C=C/c1ccc(CNCCCP(=O)(O)O)c2ccccc12 [Compound 15, {3-[({4-[(1E)-dec-1-en-1-yl]-1-naphthyl}methyl)amino]propyl}phosphonic acid]

From patent US8513418B2, “Substituted bicyclic methyl amine derivatives as sphingosine-1 phosphate receptors modulators” (Allergan, Inc., priority 2011, dated 2013)
